The values below come from patent US20220056043A1, “NITROGEN-CONTAINING FUSED CYCLIC COMPOUND, PREPARATION METHOD THEREFOR AND USE THEREOF” (SICHUAN KELUN-BIOTECH BIOPHARMACEUTICAL CO., LTD., priority 2019, published 2022).

Each structure is given as a SMILES string.

Data set [1] has as its system THP1-defNLRP3 cells. Nature of the data set: Agonistic effect on the expression of IL-1β in NLRP3 deficient THP1 cells (THP1-defNLRP3) after PMA-induced differentiation (HTRF). It is filed as cell-based, human. The settings on record: Homo sapiens, THP-1; IL-1β level, PMA-differentiated NLRP3 deficient THP1 cells, 6 hours; highest test concentration 30 μM; read-out: hNLRP3 EC50 (μM) (THP-1defNLRP3). The source says:
Experimental Example 2: Agonistic Effect of the Compound of the Invention on the Expression of IL-1β in NLRP3 Deficient THP1 Cells (THP1-defNLRP3 Cells) after PMA-Induced Differentiation
In this test, a HTRF detection method was used to test the effect of the compound of the invention on the level of IL-1β in THP1-defNLRP3 cells to evaluate the specificity of the agonistic effect of the compound on hNLRP3 inflammasome or hNLRP3 inflammasome pathway.
Reagents: as described in Experimental Example 1
Cell: THP1-defNLRP3 (InvivoGen)
Kit: IL-1β assay kit (CISBIO)
1) THP1-defNLRP3 cells in a logarithmic growth phase were seeded in a T75 culture flask at a density of 5×10^5 cells/well, and cultured in a cell incubator at 37° C., 5% CO2 for 24 hours, and then 1 μM PMA was used to induce THP1-defNLRP3 suspension cells to become adherent macrophages. The medium was RPMI 1640 containing 10% heat-inactivated FBS and 0.05 mM β-mercaptoethanol.
2) The cells were induced and cultured for 24 hours. Then the adherent cells were trypsinized and centrifuged at 1000 rpm for 5 min. The supernatant was removed, and the cells were resuspended to a density of 2×10^6 cells/mL in RPMI 1640 medium containing 2% heat-inactivated FBS. 50 μL/well of the cell resuspension was taken and spread on a 96-well plate such that the number of cells in each well was 1×10^5.
3) An appropriate amount of 10 mM DMSO solution of the compound to be tested was taken and diluted to a concentration of 2× test concentration with RPMI 1640 medium containing 2% heat-inactivated FBS. 50 μL/well of the dilution was added to the cells in the 96-well plate, and mixed well. The plate was incubated in a cell incubator at 37° C., 5% CO2 for 6 hours. The supernatant was collected, and the level of IL-1β was measured in accordance with the instructions of the IL-1β detection kit.
4) EC50 was fitted by the GraphPad software log(agonist) vs. response—Variable slope four-parameter method.

Data set [2] has as its target hERG potassium channel (Homo sapiens, UniProt Q12809).
Data set [3] deals with T1, hTLR8 (Homo sapiens, UniProt Q9NR97).
T1 construct: host or cells: HEK-Blue hTLR8 cells
T1 sequence (Q9NR97 27-1041): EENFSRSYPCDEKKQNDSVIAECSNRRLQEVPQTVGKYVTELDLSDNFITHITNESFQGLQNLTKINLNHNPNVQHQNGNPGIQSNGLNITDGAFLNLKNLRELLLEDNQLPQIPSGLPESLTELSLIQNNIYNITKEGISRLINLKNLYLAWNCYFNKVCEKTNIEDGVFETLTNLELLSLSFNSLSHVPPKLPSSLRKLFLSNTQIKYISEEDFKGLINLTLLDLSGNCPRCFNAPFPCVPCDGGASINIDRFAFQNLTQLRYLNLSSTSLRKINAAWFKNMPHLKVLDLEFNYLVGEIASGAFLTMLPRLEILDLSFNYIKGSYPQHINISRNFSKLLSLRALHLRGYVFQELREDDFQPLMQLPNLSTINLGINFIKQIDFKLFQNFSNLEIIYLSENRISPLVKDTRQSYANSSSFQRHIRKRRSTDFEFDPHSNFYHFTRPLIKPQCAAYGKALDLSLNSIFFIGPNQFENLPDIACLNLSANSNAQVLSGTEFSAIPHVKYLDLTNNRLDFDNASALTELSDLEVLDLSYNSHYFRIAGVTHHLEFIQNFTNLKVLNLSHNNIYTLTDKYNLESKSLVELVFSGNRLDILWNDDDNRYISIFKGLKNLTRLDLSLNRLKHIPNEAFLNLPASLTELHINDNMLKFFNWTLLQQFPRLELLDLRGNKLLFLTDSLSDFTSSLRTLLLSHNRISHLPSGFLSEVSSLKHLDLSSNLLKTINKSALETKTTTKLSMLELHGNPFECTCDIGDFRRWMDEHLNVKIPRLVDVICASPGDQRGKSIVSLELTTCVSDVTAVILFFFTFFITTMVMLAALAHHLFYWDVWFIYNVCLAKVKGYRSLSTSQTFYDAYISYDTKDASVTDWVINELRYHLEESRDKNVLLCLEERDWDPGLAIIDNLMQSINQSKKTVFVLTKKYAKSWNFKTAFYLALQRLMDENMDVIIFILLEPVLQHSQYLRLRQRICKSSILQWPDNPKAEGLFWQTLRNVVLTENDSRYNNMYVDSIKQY
Briefly: Agonistic effect on hTLR8, HEK-Blue hTLR8 cells, alkaline phosphatase secretion. Format: cell-based. The conditions noted are these: 16 hours. On the procedure: Experimental Example 4: Agonistic Effect of the Compound of the Invention on hTLR8
In this test, the secretion of alkaline phosphatase in HEK-Blue cells was measured to test the activating effect of the compound of the invention on TLR8 signaling pathway, so as to evaluate the specificity of the agonistic effect of the compound on NLRP3 pathway.
Reagents: DMEM (High glucose); FBS (fetal bovine serum) (Gibco); QUANTI-Blue/InvivoGen/rep-qb2
Cells: HEK-Blue™ hTLR8 cells (human TLR 8 cells) (InvivoGen) Experimental Procedures:
1) The HEK-Blue™ hTLR8 cells in a logarithmic growth phase were trypsinized and resuspended in the medium to a concentration of 2×10^6 cells/mL. 50 μL/well of the cell suspension was added to a 96-well plate. An appropriate amount of 10 mM DMSO solution of the compound to be tested was taken and diluted to a concentration of 2× test concentration with the medium. 50 μL/well was added to the cells in the 96-well plate. The plate was incubated in an incubator at 37° C. and 5% CO2 for 16 hours. The medium was DMEM (High glucose) containing 10% FBS. 2) After the cell incubation, 10 μL of cell culture supernatant was transferred to a 96-well plate. 90 μL/well of QUANTI-Blue detection solution was added, and the mixture was incubated at 37° C. for 3 hours. OD620 was read using a microplate reader.
3) The EC50 of the effect of the tested compound to stimulate hTLR8 was fitted by the GraphPad software log(agonist) vs. response—Variable slope four-parameter method.

hERG potassium channel, sequence (Q12809 whole entry): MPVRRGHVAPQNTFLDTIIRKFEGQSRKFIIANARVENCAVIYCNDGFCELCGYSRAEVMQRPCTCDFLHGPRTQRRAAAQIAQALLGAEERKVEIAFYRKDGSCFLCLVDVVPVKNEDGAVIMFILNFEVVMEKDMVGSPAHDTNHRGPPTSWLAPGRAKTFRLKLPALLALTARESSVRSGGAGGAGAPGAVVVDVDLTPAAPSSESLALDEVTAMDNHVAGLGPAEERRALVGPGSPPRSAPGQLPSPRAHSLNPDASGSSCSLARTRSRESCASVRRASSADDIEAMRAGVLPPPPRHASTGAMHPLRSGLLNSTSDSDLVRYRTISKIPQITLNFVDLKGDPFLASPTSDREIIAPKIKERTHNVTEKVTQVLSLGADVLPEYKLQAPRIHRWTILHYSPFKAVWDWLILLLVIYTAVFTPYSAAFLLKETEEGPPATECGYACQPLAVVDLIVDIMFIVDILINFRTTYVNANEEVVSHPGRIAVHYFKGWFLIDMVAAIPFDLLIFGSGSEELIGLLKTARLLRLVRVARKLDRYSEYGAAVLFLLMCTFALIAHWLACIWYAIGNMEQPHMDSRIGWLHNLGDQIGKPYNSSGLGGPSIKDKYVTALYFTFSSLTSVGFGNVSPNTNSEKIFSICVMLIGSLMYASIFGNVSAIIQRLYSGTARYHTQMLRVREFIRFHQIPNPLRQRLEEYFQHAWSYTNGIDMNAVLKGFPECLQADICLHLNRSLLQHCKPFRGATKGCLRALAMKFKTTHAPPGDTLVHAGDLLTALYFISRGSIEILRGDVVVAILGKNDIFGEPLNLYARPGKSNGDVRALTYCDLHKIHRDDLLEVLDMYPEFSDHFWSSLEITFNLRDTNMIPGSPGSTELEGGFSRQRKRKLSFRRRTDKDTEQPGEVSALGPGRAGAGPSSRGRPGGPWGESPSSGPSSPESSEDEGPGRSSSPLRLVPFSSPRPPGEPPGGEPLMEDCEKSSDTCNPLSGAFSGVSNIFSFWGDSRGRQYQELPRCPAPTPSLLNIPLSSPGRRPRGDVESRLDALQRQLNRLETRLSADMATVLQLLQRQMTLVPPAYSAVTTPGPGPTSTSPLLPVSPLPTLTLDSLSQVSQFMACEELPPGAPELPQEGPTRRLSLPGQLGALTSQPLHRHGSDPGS

In general, EC50 refers to the concentration that produces a half-maximal response. As for `COCCNc1cc(N)nc2cc(-c3ccn[nH]3)sc12` [Compound 100, N^7-(2-methoxyethyl)-2-(1H-pyrazol-5-yl)thieno[3,2-b]pyridine-5,7-diamine], the EC50 in data set [1] was more than 30 µM; in data set [3] it was more than 100 µM. In addition, the “inhibitory effect on hERG” value in data set [2] is reported as “no apparent inhibitory effect”.
With `Nc1cc(NC2CCC(O)CC2)c2sc(-c3ccn[nH]3)cc2n1` (stereo not shown) [Compound 114, 4-((5-amino-2-(1H-pyrazol-5-yl)thieno[3,2-b]pyridin-7-yl)amino)-1-cyclohexanol], the values for the concentration giving a half-maximal response (EC50) in data set [1] and in data set [3] were more than 30 µM and more than 100 µM, respectively.
For `C[C@@H]1CN(CCNc2cc(N)nc3cc(-c4ccn[nH]4)sc23)C[C@H](C)O1` [Compound 117, N^7-(2-((2S,6R)-2,6-dimethylmorpholino)ethyl)-2-(1H-pyrazol-5-yl)thieno[3,2-b]pyridine-5,7-diamine], the values for the EC50 in data set [1] and in data set [3] were more than 30 µM and more than 100 µM, respectively.
In the case of `N#CC1(CNc2cc(N)nc3cc(-c4ccn[nH]4)sc23)CC1` [Compound 119], the EC50 was more than 30 µM in data set [1] and more than 100 µM in data set [3].
The like results for `CC1(CNc2cc(N)nc3cc(-c4ccn[nH]4)sc23)COC1` [Compound 121, N^7-((3-methyloxetan-3-yl)methyl)-2-(1H-pyrazol-5-yl)thieno[3,2-b]pyridine-5,7-diamine] were, in that order, more than 30 µM and more than 100 µM.
With `CC(CO)(CO)CNc1cc(N)nc2cc(-c3ccn[nH]3)sc12` [Compound 122], the EC50 in data set [1] was more than 30 µM; in data set [3], more than 100 µM.
The like results for `Cc1c(-c2cc[nH]n2)sc2c(NCCN3CCOCC3)cc(N)nc12` [Compound 153] were, in that order, more than 30 µM and more than 100 µM.
Take `Cc1c(-c2cc[nH]n2)sc2c(NCC3CC3)cc(N)nc12` [Compound 156]: the EC50 in data set [1] is more than 30 µM; in data set [3], more than 100 µM.
For the molecule `Cc1c(-c2ccn[nH]2)sc2c(NC[C@@H]3CCCO3)cc(N)nc12` [Compound 157], the EC50 is more than 30 µM in data set [1] and more than 100 µM in data set [3].
Take `Cc1c(-c2cc[nH]n2)sc2c(NCCCO)cc(N)nc12` [Compound 159]: the EC50 is more than 30 µM in data set [1] and more than 100 µM in data set [3].
The like results for `Nc1cc(N2CCN(C3CCCC3)CC2)c2sc(-c3ccn[nH]3)cc2n1` [Compound 160] were, in that order, more than 30 µM and more than 100 µM.
For `CN1CCN(c2cc(N)nc3cc(-c4ccn[nH]4)sc23)CC1` [Compound 161], in that order: more than 30 µM and more than 100 µM.
For `CC(C)N1CCN(c2cc(N)nc3cc(-c4ccn[nH]4)sc23)CC1` [Compound 162], in that order: more than 30 µM and more than 100 µM.
For `Nc1cc(N2CCN(C3CC3)CC2)c2sc(-c3ccn[nH]3)cc2n1` [Compound 163], the concentration giving a half-maximal response (EC50) was more than 30 µM in data set [1] and more than 100 µM in data set [3].
With `CS(=O)(=O)N1CCN(c2cc(N)nc3cc(-c4ccn[nH]4)sc23)CC1` [Compound 164], the EC50 was more than 30 µM in data set [1] and more than 100 µM in data set [3].
For `COC1(C)CCN(c2cc(N)nc3cc(-c4ccn[nH]4)sc23)CC1` [Compound 165], in that order: more than 30 µM and more than 100 µM.
The like results for `Nc1cc(N2CCCC(O)C2)c2sc(-c3ccn[nH]3)cc2n1` (stereo not shown) [Compound 166] were, in that order, more than 30 µM and more than 100 µM.
The like results for `Nc1cc(N2CCN(C3CCCCC3)CC2)c2sc(-c3ccn[nH]3)cc2n1` [Compound 167] were, in that order, more than 30 µM and more than 100 µM.
With `C[C@H]1CN(c2cc(N)nc3cc(-c4ccn[nH]4)sc23)C[C@H](C)O1` [Compound 168], the figures for the EC50 in data set [1] and in data set [3] were more than 30 µM and more than 100 µM, respectively.
The like results for `C[C@@H]1CN(c2cc(N)nc3cc(-c4ccn[nH]4)sc23)C[C@H](C)O1` [Compound 169] were, in that order, more than 30 µM and more than 100 µM.
On to `Nc1cc(N2CCOCC2)c2sc(-c3ccn[nH]3)cc2n1` [Compound 170], for which the figures for the EC50 in data set [1] and in data set [3] were more than 30 µM and more than 100 µM, respectively.
Consider `CC1(C)CN(c2cc(N)nc3cc(-c4ccn[nH]4)sc23)CCO1` [Compound 171], for which the EC50 is more than 30 µM in data set [1] and more than 100 µM in data set [3].
As to `Nc1cc(N2CCC(O)CC2)c2sc(-c3ccn[nH]3)cc2n1` [Compound 172], the EC50 in data set [1] is more than 30 µM; in data set [3], more than 100 µM.
For `CC1(C)CCN(c2cc(N)nc3cc(-c4ccn[nH]4)sc23)CC1` [Compound 173], in that order: more than 30 µM and more than 100 µM.
For `Nc1cc(N2CCN(c3ccccc3)CC2)c2sc(-c3ccn[nH]3)cc2n1` [Compound 174], in that order: more than 30 µM and more than 100 µM.
As to `Nc1cc(N2CCNCC2)c2sc(-c3ccn[nH]3)cc2n1` [Compound 175], the EC50 in data set [1] was more than 30 µM; in data set [3], more than 100 µM.
In the case of `Nc1cc(N2CC3CC(C2)N3)c2sc(-c3ccn[nH]3)cc2n1` [Compound 176], the concentration giving a half-maximal response (EC50) in data set [1] is more than 30 µM; in data set [3], more than 100 µM.
`C[C@@H]1COCCN1c1cc(N)nc2cc(-c3ccn[nH]3)sc12` [Compound 177]: the EC50 was more than 30 µM in data set [1] and more than 100 µM in data set [3].
The like results for `Nc1cc(N2CCN(C=O)CC2)c2sc(-c3ccn[nH]3)cc2n1` [Compound 178] were, in that order, more than 30 µM and more than 100 µM.
For the molecule `Nc1cc(N2CC3CC(C2)N3C=O)c2sc(-c3ccn[nH]3)cc2n1` [Compound 179], the results for the concentration giving a half-maximal response (EC50) in data set [1] and in data set [3] were more than 30 µM and more than 100 µM, respectively.
The like results for `COC1CCN(c2cc(N)nc3cc(-c4ccn[nH]4)sc23)C1` (stereo not shown) [Compound 180] were, in that order, more than 30 µM and more than 100 µM.
For the molecule `Nc1cc(N2CC[C@@H](O)C2)c2sc(-c3ccn[nH]3)cc2n1` [Compound 181], the figures for the EC50 in data set [1] and in data set [3] were more than 30 µM and more than 100 µM, respectively.
The like results for `Nc1cc(N[C@H]2C[C@H]2CO)c2sc(-c3ccn[nH]3)cc2n1` [Compound 182s] were, in that order, more than 30 µM and more than 100 µM.
